This is an account of results in article PMC3511043, “The multicomponent approach to N-methyl peptides: total synthesis of antibacterial (–)-viridic acid and analogues” (Beilstein Journal of Organic Chemistry, 2012).

The subject of the experiment is Aliivibrio fischeri. As to the kind of experiment: Aliivibrio fischeri assay: inhibition of bacterial luminescence. The format is cell-based. The note with it: inhibition of bacterial luminescence vs untreated bacteria; 96-well plates; concentration series in DMSO/medium (2% v/v); 24 h incubation at 23 °C in the dark; saline BOSS medium (3% NaCl w/w); read-out: IC50 against the Gram-negative bacterium Aliivibrio fischeri. An excerpt: To our knowledge no biological screening of pure (−)-viridic acid or its analogues has been performed, and due to the potential of natural peptides and peptoids as antibacterial agents, it was decided to investigate their activity against the Gram-negative bacterium Aliivibrio fischeri. […] Although (−)-viridic acid (1) was isolated thirty years ago, this is the first unambiguous report concerning its biological activity. Based upon the results presented above, it seems that the configuration of the stereogenic center has almost no influence on the antibacterial effect of 1.
The Aliivibrio fischeri assay is based on the measurement of the inhibition of bacterial luminescence against a negative control. Bacteria were pregrown on a saline BOSS medium (3% NaCl w/w) whereby at a certain population density, bacterial luminescence will start. The bacterial suspension was diluted, distributed into 96-well microtiter plates (mtp) and the respective compounds were applied as a concentration series as solutions in DMSO/medium (2% v/v) and mixed. The luminescence of bacteria treated with the respective compounds was measured after 24 h incubation at 23 °C in the dark, in relation to controls of untreated bacteria.
1 Neves Filho, R. A. W.; Stark, S. S.; Morejon, M. C.; Westermann, B.;
3 Malkov, A. V.; Stoncius, S.; Mac Dougall, K. N.; Mariani, A.; McGeoch, G. D.; […]

Consider `CC(C)C(C(=O)Nc1ccccc1C(=O)O)N(C)C(=O)CNC(=O)c1ccccc1N(C)C` (racemic) [(±)-1, racemic viridic acid], for which the half-maximal inhibitory concentration (IC50) turned out to be 38.4 ± 5.8 µM.

As for `CC(C)[C@@H](C(=O)Nc1ccccc1C(=O)O)N(C)C(=O)CNC(=O)c1ccccc1N(C)C` [(−)-1, (−)-viridic acid], the IC50 stood at 45 ± 4.4 µM.
